Measurements published in publication PMC7464159, “Triple Negative Breast Cancer and Breast Epithelial Cells Differentially Reprogram Glucose and Lipid Metabolism upon Treatment with Triterpenic Acids” (Biomolecules, 2020).

Test system: MCF-10A cells
Test: 1H NMR metabolomics of polar (aqueous) cell extracts
Assay type: cell-based, human
Settings: BA 5µM
Experimental: MDA-MB-231 and MCF-10A cells were seeded in 10-cm-diameter Petri dishes at a density of 6 × 10^5 cells/mL (10 mL per dish) and cultured for 24 h at 37 °C. […] Vehicle solvent control cells received DMSO (0.10% v/v). Samples were collected immediately after 48 h incubation or, to assess cellular recovery, medium was replaced with fresh growth medium (without TAs), and cells were incubated for additional 24 h before collection (48 + 24 h samples). Four independent assays were performed.
After incubation, culture medium was collected and centrifuged (1000× g, 5 min) and the supernatant stored at −80 °C until analysis. Culture medium without cells was placed under the same conditions and collected. Cell extraction was performed as described by Carrola et al.. Briefly, cells were washed four times with PBS and extracted with a mixture of methanol:chloroform:water (1:1:0.7). The resulting polar and organic phases were collected and then dried under vacuum or under a stream of nitrogen gas, respectively. All samples were stored at −80 °C and, at the time of analysis, dried polar extracts were reconstituted in 600 µL of deuterated phosphate buffer (100 mM, pH 7.4) containing 0.1 mM TSP-d4, while organic extracts were reconstituted in deuterated chloroform containing 0.03% TMS. Regarding medium samples, 540 μL were mixed with 60 μL of D2O containing 0.25% TSP-d4. Prior to analysis, 550 μL of each sample were transferred to 5 mm NMR tubes.
^1H NMR spectra of all samples were acquired on a Bruker Avance III HD 500 NMR spectrometer (University of Aveiro, Portuguese NMR Network) operating at 500.13 MHz for ^1H observation equipped with a 5 mm TXI probe. Standard 1D spectra (Bruker pulse programs ‘noesypr1d’, with water suppression, for medium samples and aqueous extracts, and ‘zg’ for organic extracts) were recorded with a 7002.8 Hz spectral width, 32 k data points, a 2 s relaxation delay and 512 scans. Spectral processing comprised exponential multiplication with 0.3 Hz line broadening, zero filling to 64 k data points, manual phasing, baseline correction, and chemical shift calibration to the TSP or TMS signal at 0 ppm. 2D ^1H-^1H total correlation (TOCSY) spectra, ^1H-^13C heteronuclear single quantum correlation (HSQC) spectra and J-resolved spectra were also registered for selected samples to assist spectral assignment. Metabolites were identified with the support of 2D spectra and the spectral reference databases BBIOREFCODE-2-0-0 (Bruker Biospin, Rheinstetten, Germany) and HMDB [28]. Selected signals were then integrated using the AmixViewer software […] (version 3.9.14, Bruker BioSpin, Rheinstetten, Germany) and normalized by the total spectral area. The magnitude of each metabolite change was assessed through the percentage of variation (and its respective error) in exposed samples relatively to controls, and through the effect size (ES) adjusted for small sample numbers (and respective standard error). Metabolite variations with absolute ES greater than 0.8 were expressed in a heatmap, colored as a function of the percentage of variation, employing the R statistical software.

`C=C(C)[C@@H]1CC[C@]2(C(=O)O)CC[C@]3(C)[C@H](CC[C@@H]4[C@@]5(C)CC[C@H](O)C(C)(C)[C@@H]5CC[C@]43C)[C@@H]12` [BA, betulinic acid] was tested, and the 1-MethyInicotinamide %var (48h) was 152.75%, the 3-Hydroxyisobutyrate %var (48h) was -48.45% and the ATP %var (48h) was 0%. It also gave an Acetate %var (48h) of 33.50%, an Ala %var (48h) of -39.74% and an Asp %var (48h) of -48.70%. The Choline %var (48h) was 46.22%, the Citrate %var (48h) was -74.68% and the Cr %var (48h) was 59.47%. For the same compound, the Dimethylamine %var (48h) was -40.51%, the Formate %var (48h) was 91.07% and the Fumarate %var (48h) was -80.00%. The GPC %var (48h) was 307.70%, the GSH %var (48h) was -31.85% and the Gln %var (48h) was 0%. It also gave a Glu %var (48h) of -75.91%, a Glucose %var (48h) of -56.45% and a Glucose-1-phosphate %var (48h) of -93.58%. It also gave a Gly %var (48h) of 41.70%, a His %var (48h) of -25.16% and an Ile %var (48h) of 218.16%. It also gave a Lactate %var (48h) of 161.49%, a Leu %var (48h) of 418.85% and an NADH %var (48h) of 62.88%. The PC %var (48h) was -78.42%, the PCr %var (48h) was 0% and the Phe %var (48h) was 0%. The Pro %var (48h) was 80.04%, the Tyr %var (48h) was -16.91% and the UDP-GalNAc %var (48h) was 123.58%. The UDP-GlcNAc %var (48h) was 151.53%, the UDP-Glucose %var (48h) was -75.09% and the Val %var (48h) was 138.35%. The “myo -Lno %var” value (48h) was -19.23%, the “number of polar metabolites with altered intracellular levels” value (48h) was 31 and the 1-MethyInicotinamide %var (48h+24h) was 56.61%. It also gave a 3-Hydroxyisobutyrate %var (48h+24h) of -48.51%, an ATP %var (48h+24h) of 0% and an Acetate %var (48h+24h) of 63.78%. The Ala %var (48h+24h) was -65.18%, the Asp %var (48h+24h) was -24.38% and the Choline %var (48h+24h) was 0%. It also gave a Citrate %var (48h+24h) of -61.27%, a Cr %var (48h+24h) of 0% and a Dimethylamine %var (48h+24h) of 0%. It also gave a Formate %var (48h+24h) of 287.80%, a Fumarate %var (48h+24h) of 0% and a GPC %var (48h+24h) of 188.81%. It also gave a GSH %var (48h+24h) of -24.73%, a Gln %var (48h+24h) of 0% and a Glu %var (48h+24h) of -47.27%. It also gave a Glucose %var (48h+24h) of 0%, a Glucose-1-phosphate %var (48h+24h) of -92.25% and a Gly %var (48h+24h) of 0%. For the same compound, the His %var (48h+24h) was -44.80%, the Ile %var (48h+24h) was 36.26% and the Lactate %var (48h+24h) was 0%. It also gave a Leu %var (48h+24h) of 75.04%, an NADH %var (48h+24h) of 0% and a PC %var (48h+24h) of 0%. For the same compound, the PCr %var (48h+24h) was 0%, the Phe %var (48h+24h) was -24.03% and the Pro %var (48h+24h) was 0%. For the same compound, the Tyr %var (48h+24h) was -36.13%, the UDP-GalNAc %var (48h+24h) was 0% and the UDP-GlcNAc %var (48h+24h) was 0%. The UDP-Glucose %var (48h+24h) was -66.89%, the Val %var (48h+24h) was 10.36% and the “myo -Lno %var” value (48h+24h) was -52.77%.
